Assay results from article PMC3183052, “Immunoprotectivity of HLA-A2 CTL Peptides Derived from Respiratory Syncytial Virus Fusion Protein in HLA-A2 Transgenic Mouse” (PLoS ONE, 2011).

Columns and labels:
[1] = test system: splenocytes from HLA-A*0201 transgenic C57BL/6 mice; assay: IL-2 ELISPOT of splenocytes restimulated with peptide; type: cell-based, mouse
Summary of the method: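 HLA-A*0201 transgenic C57BL/6 mice primed and boosted intranasally 20 days apart with 1×10^7 pfu rAd-F0 or 1×10^4 live RSV B1; splenocytes taken 10 days post-boost. Splenocytes restimulated 48 h at 37°C with 2 µg individual RSV F 9-mer peptides; spots counted, expressed per 5×10^5 splenocytes.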

IL-13 = assay: Lung IL-13 expression by real-time RT-PCR after RSV challenge; type: in vivo, mouse; settings: peptide in IFA s.c. twice, day 4 post challenge, normalized to GAPDH, six mice per group
Procedure: To screen the immunodominance of epitopic peptide in the induction of RSV-F specific Th1/Th2 expression, HLA-A*0201 transgenic C57BL/6 mice were anesthetized with isoflurane and immunized with 1×10^7 pfu/50 µL of rAd-F0 or rAd-LacZ or 1×10^4 live RSV B1 via the intranasal (i.n.) route. Twenty days later, the mice were given booster immunization i.n. with the same dose. After 10 days of boost, mice were sacrificed and splenocytes were isolated for the cytokine ELISPOT assay. […] Mice body weight was monitored daily.
Lung RNA (5 µg) was mixed with 10 nmole random primers and 2 units of […] reverse transcriptase (Invitrogen) and incubated at 94°C for 10 minutes, 37°C for 30 minutes, and then at 4°C. The resulting cDNA was subjected to quantitative PCR analysis (The LightCycler® 480 Real-Time PCR system) with RSV N specific primer pairs, forward: 5′-[…]-3′ and reverse: 5′-[…]-3′. Expression of mouse GAPDH gene in the tested samples was detected as internal control by using specific primer pairs, forward: 5′-[…]-3′ and reverse: 5′-[…]-3′. The number of cycles (Ct) required for the amplification of the N gene and GAPDH was calculated. The relative expression of the N gene was calculated as followed: the individual Ct (RSV N) obtained from peptide- or vehicle-immunized lung was normalized by the respective Ct (GAPDH), and then [drawing 3] was divided by the mean of [drawing 4] . […]

Sequence: YMLTNSELL [peptide 14, HLA-A*0201-restricted 9-mer synthetic peptide from F protein of RSV-B1 strain]
- IL-2 ELISPOT, RSV ([1]; splenocytes of HLA-Tg B6 mice primed and boosted i.n. with 10^4 pfu RSV-B1, restimulated with 2 µg peptide, representative of two experiments, five mice per group): 34.5 cytokine-secreting cells per 5×10^5 splenocytes
- IL-2 ELISPOT, rAd-F0 ([1]; splenocytes of HLA-Tg B6 mice primed and boosted i.n. with 10^7 pfu rAd-F0, restimulated with 2 µg peptide, representative of two experiments, five mice per group): 200 cytokine-secreting cells per 5×10^5 splenocytes
- IL-2 level in restimulated splenocytes (ELISPOT, text grading) ([1]; splenocytes of rAd-F0- or RSV B1-primed and boosted HLA-Tg B6 mice, high = over 100 spots, moderate = over 50 spots): over 100 spots
- lung IL-13 expression vs vehicle (IL-13): normal expression
